This is an account of results in patent US6344190B1, “Method and compositions for treatment of fungal nail disease” (Board of Trustees of Michigan State University, priority 1999, dated 2002).

One series concerns Acremonium chrysogenum. The series is described as follows: Zone of inhibition assay (agar plates). It counts as cell-based. Conditions: Hapsidospora chrysogena, 168 h; after 7 days, 250 μg/mL.
A further series concerns A. strictum. Briefly: Zone of inhibition assay (agar plates). It counts as cell-based, Acremonium strictum. Further details: key to Zone of Inhibition: X denotes no observable zone of inhibition. The conditions noted are these: after 7 days, 250 μg/mL; for zone of inhibition at 250 µg/mL: Sarocladium strictum, 168 h.
Another series deals with Aspergillus flavus. The series is described as follows: Zone of inhibition assay (agar plates). On the set-up: key to Zone of Inhibition: X denotes no observable zone of inhibition. Conditions: after 7 days, 250 μg/mL. It counts as cell-based.
The next series deals with A. terreus. The series is described as follows: Zone of inhibition assay (agar plates). It counts as cell-based, Aspergillus terreus. On the set-up: key to Zone of Inhibition: X denotes no observable zone of inhibition. Conditions: after 7 days, 250 μg/mL.
The test system of a further series is Candida albicans. Briefly: Zone of inhibition assay (agar plates). It counts as cell-based. The conditions noted are these: 168 h, after 7 days, 250 μg/mL.
For the next series, the system named is C. kruseii. The series is described as follows: Zone of inhibition assay (agar plates). Further details: key to Zone of Inhibition: X denotes no observable zone of inhibition. It counts as cell-based. The conditions noted are these: after 7 days, 250 μg/mL; for zone of inhibition at 250 µg/mL: 168 h.
A further series has as its system C. parapsilosis. Briefly: Zone of inhibition assay (agar plates). It counts as cell-based. The conditions noted are these: Lodderomyces parapsilosis, 168 h; after 7 days, 250 μg/mL.
For a further series, the system named is Epidermophyton floccosum. The series is described as follows: Zone of inhibition assay (agar plates). It counts as cell-based. On the set-up: key to Zone of Inhibition: X denotes no observable zone of inhibition. The conditions noted are these: after 7 days, 250 μg/mL.
In the next series the test system is Fusarium oxysporum. Briefly: Zone of inhibition assay (agar plates). It counts as cell-based. On the set-up: key to Zone of Inhibition: X denotes no observable zone of inhibition. Conditions: after 7 days, 250 μg/mL.
The test system of a further series is F. proliferatum. The series is described as follows: Zone of inhibition assay (agar plates). It counts as cell-based. Further details: key to Zone of Inhibition: X denotes no observable zone of inhibition. The conditions noted are these: after 7 days, 250 μg/mL.
The test system of another series is Microsporum canis. Briefly: Zone of inhibition assay (agar plates). It counts as cell-based. Conditions: 168 h, after 7 days, 250 μg/mL.
For series [1], the system named is Scopulariopsis brevicaulis. The series is described as follows: Zone of inhibition assay (agar plates). It counts as cell-based. Further details: key to Zone of Inhibition: X denotes no observable zone of inhibition. The conditions noted are these: after 7 days, 250 μg/mL.
A further series deals with Scytalidium dimidiatum. Briefly: Zone of inhibition assay (agar plates). It counts as cell-based. Conditions: after 7 days, 250 μg/mL. Further details: key: X denotes no observable zone of inhibition.
For the next series, the system named is S. hyalinum. The series is described as follows: Zone of inhibition assay (agar plates). On the set-up: key to Zone of Inhibition: X denotes no observable zone of inhibition. It counts as cell-based, Scytalidium hyalinum. Conditions: after 7 days, 250 μg/mL.
Series [2] deals with Trichophyton mentagrophytes. The series is described as follows: Zone of inhibition assay (agar plates). It counts as cell-based. Further details: key to Zone of Inhibition: X denotes no observable zone of inhibition. The conditions noted are these: after 7 days, 250 μg/mL.
For a further series, the system named is T. rubrum. Briefly: Zone of inhibition assay (agar plates). It counts as cell-based. The conditions noted are these: Trichophyton rubrum, 168 h; after 7 days, 250 μg/mL.
The next series has as its system toenail onychomycosis. The conditions noted are these: oral treatment, toenail onychomycosis (Einarson et al. 1994); cited from earlier work.
For series [3] the following is noted: oral treatment, literature reports; cited from earlier work.

Structures are written as SMILES. Entries after “also recorded” stand apart in the source; their conditions may differ.

For `CC12CCC(CC1=O)C2(C)C` (stereo not drawn) [Ca, Camphor], the zone of inhibition at 250 µg/mL in the series on Acremonium chrysogenum was 10 mm; with Candida albicans it was 7 mm; in the series on C. parapsilosis, 7 mm; in the series on Microsporum canis, 2 mm; in the series on T. rubrum, 8 mm. In addition, the “Zone of Inhibition” value with A. strictum, in the series on Aspergillus flavus, in the series on A. terreus, in the series on C. kruseii, in the series with Epidermophyton floccosum and with Fusarium oxysporum was “X” in each case. Further, the “Zone of Inhibition” value (in the series with F. proliferatum; in [1]; in the series on Scytalidium dimidiatum; in the series with S. hyalinum; in series [2]) was “X” in each case.

`COC1=CC(=O)C[C@@H](C)[C@]12Oc1c(Cl)c(OC)cc(OC)c1C2=O` [GRI, griseofulvin]: in the series on toenail onychomycosis, the “success rates of the treatments” value is 17.5%. Also, in [3], the side effects result is on record as “elevated liver enzymes”.

On to `CC(=O)N1CCN(c2ccc(OCC3COC(Cn4ccnc4)(c4ccc(Cl)cc4Cl)O3)cc2)CC1` (stereo not drawn) [KET, ketoconazole], for which the “success rates of the treatments” value in the series with toenail onychomycosis was 40.8%. Also, the side effects entry in [3] was “elevated liver enzymes; also recorded: anti-androgenic dysfunction in males and adrenal dysfunction”.

Consider `CC1CCC(C(C)C)C(O)C1` (stereo not drawn) [M, Menthol], for which the zone of inhibition at 250 µg/mL amounted to 15 mm with Acremonium chrysogenum; 9 mm in the series with A. strictum; 14 mm in the series on Candida albicans; 12 mm with C. kruseii; 11 mm in the series on C. parapsilosis; 2 mm in the series with Epidermophyton floccosum (Epidermophyton floccosum, 168 h). The zone of inhibition at 250 µg/mL with Microsporum canis stood at 3 mm; with T. rubrum, 15 mm. Moreover, the “Zone of Inhibition” value (with Aspergillus flavus; in the series with A. terreus; in the series with Fusarium oxysporum; in the series on F. proliferatum; in series [1]; in the series on Scytalidium dimidiatum) was “X” throughout. The “Zone of Inhibition” value (in the series with S. hyalinum; in [2]) was “X” each time.

On to `Cc1ccc(C(C)C)c(O)c1` [T, Thymol], for which the zone of inhibition at 250 µg/mL with Acremonium chrysogenum stood at 20 mm; in the series on A. strictum it was 12 mm; in the series on Aspergillus flavus (Aspergillus flavus, 168 h), 6 mm; with A. terreus (Aspergillus terreus, 168 h) it was 3 mm; in the series with Candida albicans it was 17 mm; with C. kruseii it was 16 mm. Besides, the zone of inhibition at 250 µg/mL turned out to be 20 mm in the series on C. parapsilosis; 2 mm in the series on Fusarium oxysporum (Fusarium oxysporum, 168 h); 3 mm with F. proliferatum (Fusarium proliferatum, 168 h); 20 mm in the series with Microsporum canis; 14 mm in series [1] (Scopulariopsis brevicaulis, 168 h); 5 mm with S. hyalinum (Neoscytalidium hyalinum, 168 h). Also, the zone of inhibition at 250 µg/mL in series [2] (Trichophyton mentagrophytes, 168 h) turned out to be 10 mm; in the series on T. rubrum, 16 mm. Besides, the “Zone of Inhibition” value with Epidermophyton floccosum and in the series on Scytalidium dimidiatum was “X” each time.

As to `CN(C/C=C/C#CC(C)(C)C)Cc1cccc2ccccc12` [TER, terbinafine], the “success rates of the treatments” value in the series on toenail onychomycosis is 78.3%.

Take `CCC(C)n1ncn(-c2ccc(N3CCN(c4ccc(OCC5COC(Cn6cncn6)(c6ccc(Cl)cc6Cl)O5)cc4)CC3)cc2)c1=O` (stereo not drawn) [itraconazole]: in series [3], the side effects entry was “elevations of serum transaminases, alkaline phosphatase and bilirubin”.

For orientation: zone of inhibition means the size of the clear area around the sample on an inoculated plate.
